How the values were obtained:
[1] = species: Rattus norvegicus; test: Biodistribution in rat liver in the presence of 0.05 M/0.05 M GdDTPA-AEP; type: ADME, organism-based; conditions: in vivo
[2] = species: Rattus norvegicus; test: Biodistribution in rat muscle in the presence of 0.01 M GdDTPA-BDP; type: ADME, organism-based, Muscle tissue; conditions: in vivo
[3] = species: Rattus norvegicus; test: Biodistribution in rat bone in the presence of GdDTPA at 1 hr; type: ADME, organism-based, Bone element; conditions: in vivo
[4] = species: Rattus norvegicus; test: Biodistribution in rat liver in the presence of GdDTPA-HPDP at 30 min; type: ADME, organism-based; conditions: in vivo, 0.5 h
[5] = species: Rattus norvegicus; test: Biodistribution in rat blood in the presence of GdDTPA-HPDP at 4 hr; type: ADME, organism-based; conditions: in vivo
[6] = species: Rattus norvegicus; test: Biodistribution in rat blood in the presence of 0.05 M/0.08 M GdDTPA-HPDP; type: ADME, organism-based; conditions: in vivo
[7] = species: Rattus norvegicus; test: Biodistribution in rat bone in the presence of 0.001 M/0.008 M GdDTPA-AEP; conditions: in vivo
[8] = species: Rattus norvegicus; test: Biodistribution in rat liver in the presence of GdDTPA-HPDP at 4 hr; type: ADME, organism-based; conditions: in vivo
[9] = species: Rattus norvegicus; test: Biodistribution in rat bone in the presence of GdDTPA-BDP at 1 hr; type: ADME, organism-based, Bone element; conditions: in vivo
[10] = species: Rattus norvegicus; test: Biodistribution in rat bone in the presence of 0.05 M/0.08 M GdDTPA-HPDP; type: ADME, organism-based, Bone element; conditions: in vivo
[11] = species: Rattus norvegicus; test: Biodistribution in rat muscle in the presence of GdDTPA-HPDP at 4 hr; type: ADME, organism-based, Muscle tissue; conditions: in vivo
[12] = species: Rattus norvegicus; test: Biodistribution in rat liver in the presence of 0.01 M/0.01 M GdDTPA-AEP; type: ADME, organism-based; conditions: in vivo
[13] = species: Rattus norvegicus; test: Biodistribution in rat liver in the presence of GdDTPA-BDP at 20 min; conditions: in vivo, 0.33 h
[14] = species: Rattus norvegicus; test: Biodistribution in rat blood in the presence of 0.10 M/0.11 M GdDTPA-HPDP; conditions: in vivo
[15] = species: Rattus norvegicus; test: Biodistribution in rat heart in the presence of 0.01 M GdDTPA-BDP; type: ADME, organism-based; conditions: in vivo
[16] = species: Rattus norvegicus; test: Biodistribution in rat bone in the presence of 0.10 M/0.11 M GdDTPA-AEP; type: ADME, organism-based, Bone element; conditions: in vivo
[17] = species: Rattus norvegicus; test: Biodistribution in rat heart in the presence of GdDTPA-BDP at 1 hr; conditions: in vivo
[18] = species: Rattus norvegicus; test: Biodistribution in rat liver in the presence of 0.05 M/0.08 M GdDTPA-HPDP; type: ADME, organism-based; conditions: in vivo
[19] = species: Rattus norvegicus; test: Biodistribution in rat muscle in the presence of GdDTPA-HPDPat 30 min; type: ADME, organism-based, Muscle tissue; conditions: in vivo, 0.5 h
[20] = species: Rattus norvegicus; test: Biodistribution in rat bone in the presence of 0.10 M GdDTPA-BDP; type: ADME, organism-based, Bone element; conditions: in vivo
[21] = species: Rattus norvegicus; test: Biodistribution in rat heart in the presence of 0.001 M/0.008 M GdDTPA-AEP; conditions: in vivo
[22] = species: Rattus norvegicus; test: Biodistribution in rat blood in the presence of GdDTPA-BDP at 20 min; conditions: in vivo, 0.33 h
[23] = species: Rattus norvegicus; test: Biodistribution in rat bone in the presence of 0.05 M/0.05 M GdDTPA-AEP; type: ADME, organism-based, Bone element; conditions: in vivo
[24] = species: Rattus norvegicus; test: Biodistribution in rat muscle in the presence of GdDTPA-BDPat 30 min; type: ADME, organism-based, Muscle tissue; conditions: in vivo, 0.5 h
[25] = species: Rattus norvegicus; test: Biodistribution in rat blood in the presence of GdDTPA at 1 hr; type: ADME, organism-based; conditions: in vivo
[26] = species: Rattus norvegicus; test: Biodistribution in rat kidney in the presence of 0.01 M/0.01 M GdDTPA-AEP; type: ADME, organism-based; conditions: in vivo
[27] = species: Rattus norvegicus; test: Biodistribution in rat bone in the presence of 0.05 M GdDTPA-BDP; type: ADME, organism-based, Bone element; conditions: in vivo
[28] = species: Rattus norvegicus; test: Biodistribution in rat blood in the presence of GdDTPA-BDP at 4 hr; type: ADME, organism-based; conditions: in vivo
[29] = species: Rattus norvegicus; test: Biodistribution in rat kidney in the presence of 0.05 M/0.08 M GdDTPA-HPDP; type: ADME, organism-based; conditions: in vivo
[30] = species: Rattus norvegicus; test: Biodistribution in rat liver in the presence of 0.05 M GdDTPA-BDP; type: ADME, organism-based; conditions: in vivo
[31] = species: Rattus norvegicus; test: Biodistribution in rat muscle in the presence of GdDTPA-BDPat 15 min; type: ADME, organism-based, Muscle tissue; conditions: in vivo, 0.25 h
[32] = species: Rattus norvegicus; test: Biodistribution in rat blood in the presence of GdDTPA-BDP at 1 hr; conditions: in vivo
[33] = species: Rattus norvegicus; test: Biodistribution in rat blood in the presence of 0.05 M/0.05 M GdDTPA-AEP; type: ADME, organism-based; conditions: in vivo
[34] = species: Rattus norvegicus; test: Biodistribution in rat blood in the presence of 0.01 M/0.01 M GdDTPA-AEP; type: ADME, organism-based; conditions: in vivo
[35] = species: Rattus norvegicus; test: Biodistribution in rat muscle in the presence of GdDTPA-BDP at 4 hr; type: ADME, organism-based, Muscle tissue; conditions: in vivo
[36] = species: Rattus norvegicus; test: Biodistribution in rat blood in the presence of 0.01 M GdDTPA-BDP; type: ADME, organism-based; conditions: in vivo
[37] = species: Rattus norvegicus; test: Biodistribution in rat blood in the presence of GdDTPA at 30 min; type: ADME, organism-based; conditions: in vivo, 0.5 h
[38] = species: Rattus norvegicus; test: Biodistribution in rat muscle in the presence of GdDTPA-BDP at 1 hr; type: ADME, organism-based, Muscle tissue; conditions: in vivo
[39] = species: Rattus norvegicus; test: Biodistribution in rat spleen in the presence of 0.10 M GdDTPA-BDP; type: ADME, organism-based; conditions: in vivo
[40] = species: Rattus norvegicus; test: Biodistribution in rat liver in the presence of 0.001 M/0.008 M GdDTPA-AEP; type: ADME, organism-based; conditions: in vivo
[41] = species: Rattus norvegicus; test: Biodistribution in rat kidney in the presence of NAC Gd/0.01 M GdDTPA-HPDP; type: ADME, organism-based; conditions: in vivo
[42] = species: Rattus norvegicus; test: Biodistribution in rat heart in the presence of GdDTPA-BDP at 4 hr; conditions: in vivo
[43] = species: Rattus norvegicus; test: Biodistribution in rat liver in the presence of 0.10 M GdDTPA-BDP; type: ADME, organism-based; conditions: in vivo
[44] = species: Rattus norvegicus; test: Biodistribution in rat bone in the presence of GdDTPA at 4 hr; type: ADME, organism-based, Bone element; conditions: in vivo

Q: What does the source list for O=C(O)CN(CCN(CC(=O)O)CC(=O)O)CCN(CC(=O)O)CC(=O)O [PENTETIC ACID]?
A: ID/organ [1]: 14.8%; ID/organ [2]: 4.38%; ID/organ [3]: 0.779%; ID/organ [4]: 0.519%; ID/organ [5]: 0.068%; ID/organ [6]: 0.27%; ID/organ [7]: 0.264%; ID/organ [8]: 0.202%; ID/organ [9]: 17.6%; ID/organ [10]: 17.6%; ID/organ [11]: 0.223%; ID/organ [12]: 18.3%; ID/organ [13]: 1.02%; ID/organ [14]: 0.19%; ID/organ [15]: 0.129%; ID/organ [16]: 16.4%; ID/organ [17]: 0.055%; ID/organ [18]: 0.109%; ID/organ [19]: 4.09%; ID/organ [20]: 13.3%; ID/organ [21]: 0.004%; ID/organ [22]: 4.43%; ID/organ [23]: 0.483%; ID/organ [24]: 5.17%; ID/organ [25]: 0.094%; ID/organ [26]: 0.222%; ID/organ [27]: 16.3%; ID/organ [28]: 2.26%; ID/organ [29]: 0.423%; ID/organ [30]: 1.23%; ID/organ [31]: 8.97%; ID/organ [32]: 2.74%; ID/organ [33]: 0.556%; ID/organ [34]: 0.503%; ID/organ [35]: 4.5%; ID/organ [36]: 9.49%; ID/organ [37]: 1.02%; ID/organ [38]: 4.47%; ID/organ [39]: 0.013%; ID/organ [40]: 0.239%; ID/organ [41]: 0.273%; ID/organ [42]: 0.037%; ID/organ [43]: 0.795%; ID/organ [44]: 0.287%

Reference: ChEMBL document CHEMBL1124314, “Development of phosphonate derivatives of gadolinium chelates for NMR imaging of calcified soft tissues” (J Med Chem, 1989)
